Read-outs that look alike come from different tables or passages of the source.
Legend:
[1] = molecular target: T1, Flt-3 (baculovirus expressed human Flt-3 kinase domain R571-S993) (Homo sapiens, UniProt P36888); test: biochemical; conditions: read-out: flt3 IC50;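 further: Luciferase-coupled chemiluminescent kinase assay, activity read as percent ATP left after a 3 h reaction at room temperature, ATP near KM, 10-point dose-response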
T1 construct: human Flt-3 kinase domain R571-S993; host or cells: baculovirus expression
T1 sequence (P36888 571-993): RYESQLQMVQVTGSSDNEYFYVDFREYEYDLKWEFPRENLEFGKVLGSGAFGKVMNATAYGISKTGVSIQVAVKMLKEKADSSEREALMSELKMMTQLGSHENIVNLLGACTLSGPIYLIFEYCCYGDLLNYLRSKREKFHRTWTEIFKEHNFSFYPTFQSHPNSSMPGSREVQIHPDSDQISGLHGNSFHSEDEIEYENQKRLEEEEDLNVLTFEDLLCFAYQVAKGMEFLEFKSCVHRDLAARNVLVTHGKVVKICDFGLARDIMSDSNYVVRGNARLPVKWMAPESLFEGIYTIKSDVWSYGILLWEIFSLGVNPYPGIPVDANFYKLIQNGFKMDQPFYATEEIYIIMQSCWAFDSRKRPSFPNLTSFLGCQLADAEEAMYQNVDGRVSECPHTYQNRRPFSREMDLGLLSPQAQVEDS

[2] = molecular target: T2, KDR (baculovirus expressed human KDR kinase domain D807-V1356) (Homo sapiens, UniProt P35968); test: biochemical;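 further: Luciferase-coupled chemiluminescent kinase assay, activity read as percent ATP left after 4 h reaction at ambient temperature, ATP near KM, 10-point dose-response in 384-well plates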
T2 construct: human KDR kinase domain D807-V1356; host or cells: baculovirus expression
T2 sequence (P35968 807-1356): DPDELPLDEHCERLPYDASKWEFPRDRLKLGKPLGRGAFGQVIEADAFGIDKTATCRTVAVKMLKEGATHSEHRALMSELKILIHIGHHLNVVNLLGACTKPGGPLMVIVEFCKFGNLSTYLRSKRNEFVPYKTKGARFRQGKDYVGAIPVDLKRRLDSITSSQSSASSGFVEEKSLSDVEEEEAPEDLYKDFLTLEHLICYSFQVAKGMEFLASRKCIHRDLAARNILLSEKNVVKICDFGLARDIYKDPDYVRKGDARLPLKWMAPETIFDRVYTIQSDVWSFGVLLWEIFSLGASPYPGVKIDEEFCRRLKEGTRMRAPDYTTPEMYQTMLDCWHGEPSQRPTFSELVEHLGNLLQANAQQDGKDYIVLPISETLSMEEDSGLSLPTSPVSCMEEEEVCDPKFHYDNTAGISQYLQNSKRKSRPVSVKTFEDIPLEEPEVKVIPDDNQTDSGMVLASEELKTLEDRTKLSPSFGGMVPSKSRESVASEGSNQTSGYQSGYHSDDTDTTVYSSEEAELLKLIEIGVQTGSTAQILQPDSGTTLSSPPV

[3] = molecular target: T3, c-Met (baculovirus expressed human c-Met kinase domain P948-S1343) (Homo sapiens, UniProt P08581); test: c-Met Luciferase-Coupled Chemiluminescent Kinase assay (LCCA); format: biochemical;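 further: kinase activity read as percent ATP left after reaction, by luciferase-luciferin chemiluminescence, with 1 µM ATP and 1 µM poly-EY substrate, 2 h at ambient temperature, 10-point dose-response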
T3 construct: human c-Met kinase domain P948-S1343; host or cells: baculovirus expression
T3 sequence (P08581 1011-1343 limits assumed): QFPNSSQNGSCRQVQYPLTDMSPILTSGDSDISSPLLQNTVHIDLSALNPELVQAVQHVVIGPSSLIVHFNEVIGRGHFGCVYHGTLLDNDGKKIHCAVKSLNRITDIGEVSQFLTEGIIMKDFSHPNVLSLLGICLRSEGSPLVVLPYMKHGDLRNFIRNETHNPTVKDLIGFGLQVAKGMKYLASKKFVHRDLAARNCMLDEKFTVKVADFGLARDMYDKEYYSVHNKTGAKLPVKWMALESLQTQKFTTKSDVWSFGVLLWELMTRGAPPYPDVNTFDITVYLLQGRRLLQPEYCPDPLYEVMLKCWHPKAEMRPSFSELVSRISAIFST

[4] = Table 4, inhibition as IC50 class

SMILES	IC50 [1, 4] [nM]	IC50 [2, 4] [nM]	IC50 [3, 4] [nM]	IC50 [2] [nM]	IC50 [3] [nM]	IC50 [1] [nM]
COc1cc2nccc(Oc3ncc(NC(=O)CC(=O)Nc4cccc(F)c4)cc3Cl)c2cc1OC [Example 290, N-(6-{[6,7-bis(methyloxy)quinolin-4-yl]oxy}-5-chloropyridin-3-yl)-N′-(3-fluorophenyl)propanediamide]				500 to 5000	50 to 500	
COc1cc2nc(SC)cc(Oc3ccc(NC(=O)C4(C(=O)Nc5ccc(F)cc5)CC4)cc3F)c2cc1OC [Example 338, N-(4-{[6,7-bis(methyloxy)-2-(methylthio)quinolin-4-yl]oxy}-3-fluorophenyl)-N′-(4-fluorophenyl)cyclopropane-1,1-dicarboxamide]				500 to 5000	500 to 5000	
COc1cc2nc(C)nc(Oc3ccc(NC(=O)C4(C(=O)Nc5ccc(F)cc5)CC4)cc3)c2cc1OC [Example 339, N-(4-fluorophenyl)-N′-(4-{[2-methyl-6,7-bis(methyloxy)quinazolin-4-yl]oxy}phenyl)cyclopropane-1,1-dicarboxamide]				500 to 5000	500 to 5000	
CCN(CC)CCCOc1cc2c(Oc3ccc(NC(=O)C4(C(=O)Nc5ccc(F)cc5)CC4)cc3F)ccnc2cc1OC [Example 344, N-(4-{[6-{[3-(diethylamino)propyl]oxy}-7-(methyloxy)quinolin-4-yl]oxy}-3-fluorophenyl)-N′-(4-fluorophenyl)cyclopropane-1,1-dicarboxamide]				< 50	< 50	< 50
CCN(CC)CCOc1cc2c(Oc3ccc(NC(=O)C4(C(=O)Nc5ccc(F)cc5)CC4)cc3F)ccnc2cc1OC [Example 345, N-(4-{[6-{[2-(diethylamino)ethyl]oxy}-7-(methyloxy)quinolin-4-yl]oxy}-3-fluorophenyl)-N′-(4-fluorophenyl)cyclopropane-1,1-dicarboxamide]				< 50	< 50	< 50
COc1cc2c(Oc3ccc(NC(=O)C4(C(=O)Nc5ccc(F)cc5)CC4)cc3F)ccnc2cc1OCCCN1CCN(C(=O)OC(C)(C)C)CC1 [Example 346, 1,1-dimethylethyl 4-(3-{[4-[(2-fluoro-4-{[(1-{[(4-fluorophenyl)amino]carbonyl}cyclopropyl)carbonyl]amino}phenyl)oxy]-6-(methyloxy)quinolin-7-yl]oxy}propyl)piperazine-1-carboxylate]				< 50	< 50	50 to 500
COc1cc2c(Oc3ccc(NC(=O)[C@]4(C(=O)Nc5ccc(F)cc5)C[C@H]4C)cc3F)ncnc2cc1OCCCN1CCOCC1 [Example 347, (1R,2R)-N-[3-fluoro-4-({6-(methyloxy)-7-[(3-morpholin-4-ylpropyl)oxy]quinazolin-4-yl}oxy)phenyl]-N′-(4-fluorophenyl)-2-methylcyclopropane-1,1-dicarboxamide]				< 50	< 50	
COc1cc2c(Oc3ccc(NC(=O)[C@]4(C(=O)Nc5ccc(F)cc5)C[C@H]4C)cc3F)ccnc2cc1OCCCN1CCN(C(=O)OC(C)(C)C)CC1 [Example 351, 1,1-dimethylethyl 4-(3-{[4-[(2-fluoro-4-{[((1R,2R)-1-{[(4-fluorophenyl)amino]carbonyl}-2-methylcyclopropyl)carbonyl]amino}phenyl)oxy]-6-(methyloxy)quinolin-7-yl]oxy}propyl)piperazine-1-carboxylate]				< 50	< 50	50 to 500
COc1cc2c(Oc3ccc(NC(=O)[C@]4(C(=O)Nc5ccc(F)cc5)C[C@@H]4C)cc3F)ccnc2cc1OCCCN1CCN(C)CC1 [Example 354, (1R,2S)-N-{3-fluoro-4-[(6-(methyloxy)-7-{[3-(4-methylpiperazin-1-yl)propyl]oxy}quinolin-4-yl)oxy]phenyl}-N′-(4-fluorophenyl)-2-methylcyclopropane-1,1-dicarboxamide]				< 50	< 50	< 50
COc1cc2c(Oc3ccc(NC(=O)[C@]4(C(=O)Nc5ccc(F)cc5)C[C@H]4C)cc3F)ccnc2cc1OCCCN1CCN(C)CC1 [Example 355, (1R,2R)-N-{3-fluoro-4-[(6-(methyloxy)-7-{[3-(4-methylpiperazin-1-yl)propyl]oxy}quinolin-4-yl)oxy]phenyl}-N′-(4-fluorophenyl)-2-methylcyclopropane-1,1-dicarboxamide]				< 50	< 50	< 50
COc1cc2nccc(Oc3ccc(NC(=O)C4(C(=O)Nc5cccc(CN6CCCCC6)c5)CC4)cc3)c2cc1OC [Example 400, N-(4-{[6,7-bis(methyloxy)quinolin-4-yl]oxy}phenyl)-N′-[3-(piperidin-1-ylmethyl)phenyl]cyclopropane-1,1-dicarboxamide]				< 50	50 to 500	

Continued, values first:

IC50 [1, 4] [nM]	IC50 [2, 4] [nM]	IC50 [3, 4] [nM]	IC50 [2] [nM]	IC50 [3] [nM]	IC50 [1] [nM]	SMILES
< 50	< 50	< 50				COc1cc(CNC(=O)C(=O)Nc2ccc(Oc3ccnc4cc(OCC5CCNCC5)c(OC)cc34)c(F)c2)cc(OC)c1 [Example 269, N-{[3,5-bis(methyloxy)phenyl]methyl}-N′-[3-fluoro-4-({6-(methyloxy)-7-[(piperidin-4-ylmethyl)oxy]quinolin-4-yl}oxy)phenyl]ethanediamide]
			500 to 5000	500 to 5000		COc1cc2nccc(Oc3ncc(NC(=O)C4(C(=O)NCCc5ccccc5)CC4)cc3Cl)c2cc1OC [Example 302, N-(6-{[6,7-bis(methyloxy)quinolin-4-yl]oxy}-5-chloropyridin-3-yl)-N′-(2-phenylethyl)cyclopropane-1,1-dicarboxamide]
			500 to 5000	500 to 5000		COc1cc2nc(N)cc(Oc3ccc(NC(=O)C4(C(=O)Nc5ccc(F)cc5)CC4)cc3F)c2cc1OC [Example 340, N-(4-{[2-amino-6,7-bis(methyloxy)quinolin-4-yl]oxy}-3-fluorophenyl)-N′-(4-fluorophenyl)cyclopropane-1,1-dicarboxamide]
			500 to 5000	500 to 5000		CNc1cc(Oc2ccc(NC(=O)C3(C(=O)Nc4ccc(F)cc4)CC3)cc2F)c2cc(OC)c(OC)cc2n1 [Example 341, N-(3-fluoro-4-{[2-(methylamino)-6,7-bis(methyloxy)quinolin-4-yl]oxy}phenyl)-N′-(4-fluorophenyl)cyclopropane-1,1-dicarboxamide]
			< 50	< 50	50 to 500	CCN(CC)CCOc1cc2ncnc(Oc3ccc(NC(=O)[C@]4(C(=O)Nc5ccc(F)cc5)C[C@H]4C)cc3F)c2cc1OC [Example 348, (1R,2R)-N-(4-{[7-{[2-(diethylamino)ethyl]oxy}-6-(methyloxy)quinazolin-4-yl]oxy}-3-fluorophenyl)-N′-(4-fluorophenyl)-2-methylcyclopropane-1,1-dicarboxamide]
			< 50	< 50	< 50	CCN(CC)CCCOc1cc2ncnc(Oc3ccc(NC(=O)C4(C(=O)Nc5ccc(F)cc5)CC4)cc3F)c2cc1OC [Example 349, N-(4-{[7-{[3-(diethylamino)propyl]oxy}-6-(methyloxy)quinazolin-4-yl]oxy}-3-fluorophenyl)-N′-(4-fluorophenyl)cyclopropane-1,1-dicarboxamide]
			< 50	< 50	< 50	COc1cc2c(Oc3ccc(NC(=O)C4(C(=O)Nc5ccc(F)cc5)CC4)cc3F)ccnc2cc1OCCCN1CCN(C(C)=O)CC1 [Example 350, N-(4-{[7-{[3-(4-acetylpiperazin-1-yl)propyl]oxy}-6-(methyloxy)quinolin-4-yl]oxy}-3-fluorophenyl)-N′-(4-fluorophenyl)cyclopropane-1,1-dicarboxamide]
			500 to 5000	< 50	500 to 5000	COc1cc2nccc(Oc3ccc(NC(=O)C4(C(=O)Nc5ccc(F)cc5)CN(Cc5ccccc5)C4)cc3)c2cc1OC [Example 352, N-(4-{[6,7-bis(methyloxy)quinolin-4-yl]oxy}phenyl)-N′-(4-fluorophenyl)-1-(phenylmethyl)azetidine-3,3-dicarboxamide]
			500 to 5000	50 to 500	500 to 5000	COc1cc2nccc(Oc3ccc(NC(=O)C4(C(=O)Nc5ccc(F)cc5)CNC4)cc3)c2cc1OC [Example 353, N-(4-{[6,7-bis(methyloxy)quinolin-4-yl]oxy}phenyl)-N′-(4-fluorophenyl)azetidine-3,3-dicarboxamide]
			< 50	< 50		CCN(CC)CCOc1cc2ncnc(Oc3ccc(NC(=O)C4(C(=O)Nc5ccc(F)cc5)CCC4)cc3F)c2cc1OC [Example 363, N-(4-{[7-{[2-(diethylamino)ethyl]oxy}-6-(methyloxy)quinazolin-4-yl]oxy}-3-fluorophenyl)-N′-(4-fluorophenyl)cyclobutane-1,1-dicarboxamide]
			< 50	< 50		COc1cc2nccc(Oc3ccc(NC(=O)C4(C(=O)Nc5cccc(CN6CCCC6)c5)CC4)cc3)c2cc1OC [Example 401, N-(4-{[6,7-bis(methyloxy)quinolin-4-yl]oxy}phenyl)-N′-[3-(pyrrolidin-1-ylmethyl)phenyl]cyclopropane-1,1-dicarboxamide]

Source: patent US8476298B2 (Exelixis, Inc., priority 2003, dated 2013)
